Source: PubChem BioAssay (NCI)
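Growth conditions: 96-well plates. Treatment: test compound, 48 hours, 5 concentrations. Analysis: linear interpolation between bracketing concentrations; unreached endpoints set to highest concentration. TGI: total growth inhibition.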

What was measured:
Experiment in all cases: growth of human tumour cells (NCI), 48 h
HT29 colon = system: HT29 colon
MALME-3M melanoma = system: MALME-3M melanoma
SR leukemia = system: SR leukemia
KM12 colon = system: KM12 colon
SF-268 CNS = system: SF-268 CNS
HL-60(TB) leukemia = system: HL-60(TB) leukemia
OVCAR-4 ovarian = system: OVCAR-4 ovarian
SF-539 CNS = system: SF-539 CNS
RXF 393 renal = system: RXF 393 renal
TK-10 renal = system: TK-10 renal
SK-MEL-2 melanoma = system: SK-MEL-2 melanoma
MDA-N = system: MDA-N
SF-295 CNS = system: SF-295 CNS
RPMI-8226 leukemia = system: RPMI-8226 leukemia
IGROV1 ovarian = system: IGROV1 ovarian
NCI-H23 lung = system: NCI-H23 lung
SNB-75 CNS = system: SNB-75 CNS
T-47D breast = system: T-47D breast
HS 578T breast = system: HS 578T breast
786-0 renal = system: 786-0 renal

Compound | TGI (HT29 colon) [µM] | TGI (MALME-3M melanoma) [µM] | TGI (SR leukemia) [µM] | TGI (KM12 colon) [µM] | TGI (SF-268 CNS) [µM] | TGI (HL-60(TB) leukemia) [µM] | TGI (OVCAR-4 ovarian) [µM] | TGI (SF-539 CNS) [µM] | TGI (RXF 393 renal) [µM] | TGI (TK-10 renal) [µM] | TGI (SK-MEL-2 melanoma) [µM] | TGI (MDA-N) [µM] | TGI (SF-295 CNS) [µM] | TGI (RPMI-8226 leukemia) [µM] | TGI (IGROV1 ovarian) [µM] | TGI (NCI-H23 lung) [µM] | TGI (SNB-75 CNS) [µM] | TGI (T-47D breast) [µM] | TGI (HS 578T breast) [µM] | TGI (786-0 renal) [µM]
COc1ccc(-c2nc3ccc(C)cc3o2)c(OC)c1 | 30.2 | 42.1 | > 72.3 | 40.4 | 77.4 | 50 | 74.1 | 40.9 | 53.8 | 76.5 | 71.7 | 64.4 | 46.8 | 49.1 | 76.3 | 87.5 | 54.4 | > 96.1 | 71.4 | 41.7
C=CCCCC1(C)CCCCNC1=O (stereo not given) | > 10 | > 10 | > 10 | > 10 | > 10 | > 10 | > 10 | > 10 | > 10 | > 10 | > 10 | > 10 | > 10 | > 10 | > 10 | > 10 | > 10 | > 10 | > 10 | > 10
CC(C)(C)SC1=CCC[C@@H](P(=O)(c2ccccc2)c2ccccc2)[C@@H]2CCC[C@@H]12 | 28.3 | 36.3 | 43.6 | 35.5 | 35.5 | 47.5 | 31.4 | 36.5 | 29.9 | 32.3 | 31.8 | 30.3 | 29 | 41.9 | 36 | 33.6 | 26.5 | 33.3 | 47.6 | 30.4
CC(C)(C)OC(=O)C(C1NC(C(=O)O)C(C)(C)S1)N1C(=O)c2ccccc2C1=O (stereo not given) | > 100 | > 100 | > 100 | > 100 | > 100 | > 100 | > 100 | > 100 | > 100 | > 100 | > 100 | > 100 | > 100 | > 100 | > 100 | > 100 | > 100 | > 100 | > 100 | > 100
